EC50 data for 28 compounds are collected here from US20230150978A1, “QUINAZOLINONE DERIVATIVES AND USES THEREOF FOR TREATING A CANCER” (ENYO PHARMA, priority 2020, published 2023).

Like-named read-outs stand apart in the source and are kept apart here.

The test system of one assay is Calreticulin. Briefly: Calreticulin release (ER to plasma membrane translocation) screen, Nano-Glo HiBiT extracellular detection. Format: cell-based. Particulars: extracellular luminescence, read-out: CalR EC50. How it is done:
Construction of pBiT3.1-Calreticulin Plasmid Calreticulin derived from pCMV6-AC plasmid (ref. SC320287, Origene) was amplified by PCR using the following set of primers: Seq ID No 3: forward, 5′-[…]-3′; Seq ID No 4: reverse, 5′-[…]-3′. The PCR fragment was subsequently digested by EcoRI and XhoI (R3101S and R0146S respectively, New England Biolabs) and inserted between the EcoRI and XhoI sites in the plasmid pBiT3.1-C(ref. N237A, Promega). The resulting plasmid (pBiT3.1-Calreticulin) was grown in NEB10-beta competent E. coli (ref. C3019I, New England Biolabs) and purified using the NucleoBond Xtra Midi Kit (ref. 740410, Macherey-Nagel).
Construction of Calreticulin Reporter Cell Line
pBiT3.1-Calreticulin was transfected in MDA-MB-231 cells (ref. ATCC HTB-2) using Lipofectamine 2000 reagent (ref. 11668, Invitrogen). Transfected cells were selected for blasticidin resistance (15 μg/ml, ref. Al 113903 Gibco) in medium containing DMEM 1× (ref. 1995065, Gibco) with 1% penicillin and streptomycin, and 10% fetal bovine serum.
Screen for Calreticulin-ER to Plasma Membrane Translocating Drugs
MDA-MB-231 cells stably expressing Calreticulin-HiBiT (10^4 cells/well) were seeded into white 96-well plates (ref.3917, Corning) and allowed to recover for 24h. […] Mitoxantrone dihydrochloride (ref. M6545, Sigma-Aldrich) was used as a positive control. Extracellular translocation of Calreticulin was measured using the Nano-Glo HiBiT extracellular detection system (ref. N2422, Promega). Nano-Glo HiBiT Extracellular Reagent was prepared in advance, added to the well and incubated 10 min.
Luminescence of the extracellular Calreticulin-HiBiT was quantified using the Spark 20M spectrofluorimeter (TECAN).

Another assay has as its system HMGB1. Briefly: HMGB1 release screen, Nano-Glo HiBiT extracellular detection. The assay is classed as cell-based. Particulars: extracellular luminescence. The method, then: Construction of pBiT3.1-HMGB1 Plasmid
HMGB1 derived from pCMV6-AC-GFP plasmid (ref. RG205918, Origene) was amplified by PCR using the following set of primers: Seq ID No 1: forward, 5′-[…]-3′; Seq ID No 2: reverse, 5′-[…]-3′. The PCR fragment was subsequently digested by EcoRI and XhoI (R3101S and R0146S respectively, New England Biolabs) and inserted between the EcoRI and XhoI sites in the plasmid pBiT3.1-C(ref. N237A, Promega). The resulting plasmid (pBiT3.1-HMGB1) was grown in NEB10-beta competent E. coli (ref. C3019I, New England Biolabs) and purified using the NucleoBond Xtra Midi Kit (ref. 740410, Macherey-Nagel).
Construction of HMGB1 Reporter Cell Line
pBiT3.1-HMGB1 was transfected in MDA-MB-231 cells (ref. ATCC HTB-2) using Lipofectamine 2000 reagent (ref. 11668, Invitrogen). Transfected cells were selected for blasticidin resistance (15 μg/ml, ref. Al 113903 Gibco) in medium containing DMEM 1× (ref. 1995065, Gibco) with 1% penicillin and streptomycin, and 10% fetal bovine serum.
Screen for HMGB1-Releasing Drugs
MDA-MB-231 cells stably expressing HMGB1-HiBiT (10^4 cells/well) were seeded into white 96-well plates (ref.3917, Corning) and allowed to recover for 24h. […] Mitoxantrone dihydrochloride (ref. M6545, Sigma-Aldrich) was used as a positive control. Extracellular translocation of HMGB1 was measured using the Nano-Glo HiBiT extracellular detection system (ref. N2422, Promega). Nano-Glo HiBiT Extracellular Reagent was prepared in advance, added to the well and incubated 10 min. Luminescence of the extracellular HMGB1-HiBiT was quantified using the Spark 20M spectrofluorimeter (TECAN)
(The HiBiT peptide binds its large partner to form an active luciferase.)

[1] abbreviates: Homo sapiens, MDA-MB-231, MDA-MB-231 cells stably expressing Calreticulin-HiBiT.
[2] abbreviates: Homo sapiens, MDA-MB-231, MDA-MB-231 cells stably expressing HMGB1-HiBiT.
[3] abbreviates: MDA-MB-231 cells stably expressing Calreticulin-HiBiT.
[4] abbreviates: MDA-MB-231 cells stably expressing HMGB1-HiBiT.

Usually EC50 stands for the concentration at which the effect is half-maximal. Regarding `COc1ccc2nc(CN3CCc4c(F)cccc4C3)[nH]c(=O)c2c1` [Ex. #124, 2-[(5-fluoro-3,4-dihydro-1H-isoquinolin-2-yl)methyl]-6-methoxy-3H-quinazolin-4-one], the values for the EC50 with Calreticulin (setting [1]) and in the assay with HMGB1 (setting [2]) were 2.16 µM and 13.5 µM, respectively.
Taken in the same sequence, the figures for `COc1cc2nc(CN3CCc4ccccc43)[nH]c(=O)c2cc1OC` [Ex. #83, 2-(indolin-1-ylmethyl)-6,7-dimethoxy-3H-quinazolin-4-one] were 1.61 µM and 1.44 µM.
For the compound `O=c1[nH]c(CN2CCc3cc(F)ccc32)nc2ccc(Cl)cc12` [Ex. #47, 6-chloro-2-[(5-fluoroindolin-1-yl)methyl]-3H-quinazolin-4-one], the EC50 in the assay with Calreticulin (setting [1]) came out at 2.18 µM; in the assay with HMGB1 (setting [2]), 3.98 µM.
Consider `O=c1[nH]c(CN2CCc3ccccc32)nc2cc(F)ccc12` [Ex. #138, 7-fluoro-2-(indolin-1-ylmethyl)-3H-quinazolin-4-one], for which the EC50 in the assay on Calreticulin (setting [1]) worked out at 12 µM; with HMGB1 (setting [2]) it was 14.5 µM.
Taken in the same sequence, the figures for `O=c1[nH]c(CN2Cc3ccccc3C2)nc2ccc(Cl)cc12` [Ex. #50, 6-chloro-2-(isoindolin-2-ylmethyl)-3H-quinazolin-4-one] were 4.66 µM and 11.6 µM.
Turning to `O=c1[nH]c(CN2CCOc3ccccc32)nc2ccc(Cl)cc12` [Ex. #57, 6-chloro-2-(2,3-dihydro-1,4-benzoxazin-4-ylmethyl)-3H-quinazolin-4-one], the figures for the EC50 in the assay on Calreticulin (setting [1]) and in the assay on HMGB1 (setting [2]) were 14.2 µM and 11.9 µM, respectively.
As to `Cc1cccc2c1N(Cc1nc3ccc(Cl)cc3c(=O)[nH]1)CC2` [Ex. #44, 6-chloro-2-[(7-methylindolin-1-yl)methyl]-3H-quinazolin-4-one], the values for the EC50 in the assay on Calreticulin (setting [1]) and in the assay with HMGB1 (setting [2]) were 1.26 µM and 1.33 µM, respectively.
On to `O=c1[nH]c(CN2CCCCc3ccccc32)nc2ccc(Cl)cc12` [Ex. #62, 6-chloro-2-(2,3,4,5-tetrahydro-1-benzazepin-1-ylmethyl)-3H-quinazolin-4-one], for which the EC50 in the assay on Calreticulin (setting [1]) worked out at 0.96 µM; in the assay with HMGB1 (setting [2]) it was 1.06 µM.
On to `COc1ccc2nc(CN3CC(C)c4ccccc43)[nH]c(=O)c2c1` (single isomer, unassigned) [Ex. #5, 6-methoxy-2-[(3-methylindolin-1-yl)methyl]-3H-quinazolin-4-one], for which the EC50 in the assay with Calreticulin (setting [3]) is 2.31 µM; in the assay on HMGB1 (setting [4]) it was 3.46 µM.
Regarding `Cc1ccc2nc(CN3CCc4ccccc43)[nH]c(=O)c2c1` [Ex. #84, 2-(indolin-1-ylmethyl)-6-methyl-3H-quinazolin-4-one], the results for the EC50 with Calreticulin (setting [1]) and in the assay on HMGB1 (setting [2]) were 0.695 µM and 2.63 µM, respectively.
For `O=c1[nH]c(CN2CCc3ccccc32)nc2ccc(OC(F)(F)F)cc12` [Ex. #82, 2-(indolin-1-ylmethyl)-6-(trifluoromethoxy)-3H-quinazolin-4-one], in that order: 1.38 µM and 1.17 µM.
For `COc1ccc2nc(CN3CC(C)(C)c4ccccc43)[nH]c(=O)c2c1` [Ex. #2, 2-[(3,3-dimethylindolin-1-yl)methyl]-6-methoxy-3H-quinazolin-4-one], in that order: 0.4 µM and 0.6 µM.
For `COCCOc1ccc2nc(CN3CC(C)(C)c4ccccc43)[nH]c(=O)c2c1` [Ex. #97, 2-[(3,3-dimethylindolin-1-yl)methyl]-6-(2-methoxyethoxy)-3H-quinazolin-4-one], in that order: 7.36 µM and 7.56 µM.
Regarding `CN1CCN(Cc2nc3ccc(Cl)cc3c(=O)[nH]2)c2ccccc21` [Ex. #128, 6-chloro-2-[(4-methyl-2,3-dihydroquinoxalin-1-yl)methyl]-3H-quinazolin-4-one], the values for the EC50 in the assay with Calreticulin (setting [1]) and with HMGB1 (setting [2]) were 10.5 µM and 13.3 µM, respectively.
In the case of `Cc1ccc2c(c1)N(Cc1nc3ccc(Cl)cc3c(=O)[nH]1)CC2` [Ex. #45, 6-chloro-2-[(6-methylindolin-1-yl)methyl]-3H-quinazolin-4-one], the EC50 in the assay with Calreticulin (setting [1]) was 1.21 µM; with HMGB1 (setting [2]), 4.66 µM.
Take `Cc1ccc2c(c1)CCN2Cc1nc2ccc(Cl)cc2c(=O)[nH]1` [Ex. #46, 6-chloro-2-[(5-methylindolin-1-yl)methyl]-3H-quinazolin-4-one]: the EC50 in the assay with Calreticulin (setting [1]) was determined as 2.71 µM; in the assay with HMGB1 (setting [2]), 5.51 µM.
`COc1ccc2c(c1)CCN2Cc1nc2ccc(Cl)cc2c(=O)[nH]1` [Ex. #144, 6-chloro-2-((5-methoxyindolin-1-yl)methyl)quinazolin-4(3H)-one]: the EC50 amounted to 9.71 µM in the assay with Calreticulin (setting [1]) and 14.6 µM with HMGB1 (setting [2]).
Taken in the same sequence, the figures for `CN1CCCN(Cc2nc3ccc(Cl)cc3c(=O)[nH]2)c2ccccc21` [Ex. #63, 6-chloro-2-[(1-methyl-3,4-dihydro-2H-1,5-benzodiazepin-5-yl)methyl]-3H-quinazolin-4-one] were 3.86 µM and 4.26 µM.
For `COc1ccc2nc(CN3CCCN(C)c4ccccc43)[nH]c(=O)c2c1` [Ex. 23, 6-methoxy-2-[(1-methyl-3,4-dihydro-2H-1,5-benzodiazepin-5-yl)methyl]-3H-quinazolin-4-one], in that order: 1.96 µM and 2 µM.
For `O=c1[nH]c(CN2CCc3ccccc32)nc2ccc(N3CCCCC3)cc12` [Ex. #106, 2-(indolin-1-ylmethyl)-6-(1-piperidyl)-3H-quinazolin-4-one], in that order: 8.46 µM and 11.1 µM.
For `O=c1[nH]c(CN2CCc3ccccc32)nc2ccc(N3CCC3)cc12` [Ex. #100, 6-(azetidin-1-yl)-2-(indolin-1-ylmethyl)-3H-quinazolin-4-one], the EC50 with Calreticulin (setting [1]) was 0.23 µM; in the assay on HMGB1 (setting [2]), 0.25 µM.
In the case of `COc1ccc2nc(CN3CCOc4cccc(OC)c43)[nH]c(=O)c2c1` [Ex. #14, 6-methoxy-2-[(5-methoxy-2,3-dihydro-1,4-benzoxazin-4-yl)methyl]-3H-quinazolin-4-one], the EC50 with Calreticulin (setting [1]) stood at 1.96 µM; with HMGB1 (setting [2]) it was 2.16 µM.
Turning to `COc1cccc2c1N(Cc1nc3ccc(Cl)cc3c(=O)[nH]1)CC2` [Ex. #49, 6-chloro-2-[(7-methoxyindolin-1-yl)methyl]-3H-quinazolin-4-one], the EC50 was 7.56 µM in the assay on Calreticulin (setting [1]) and 11.2 µM with HMGB1 (setting [2]).
For `CN(C)c1ccc2nc(CN3CCc4ccccc43)[nH]c(=O)c2c1` [Ex. #73, 6-(dimethylamino)-2-(indolin-1-ylmethyl)-3H-quinazolin-4-one], the EC50 is 0.253 µM in the assay on Calreticulin (setting [1]) and 0.275 µM in the assay on HMGB1 (setting [2]).
As for `CC1CN(Cc2nc3ccc(Cl)cc3c(=O)[nH]2)c2ccccc21` (single isomer, unassigned) [Ex. #39, 6-chloro-2-[(3-methylindolin-1-yl)methyl]-3H-quinazolin-4-one], the EC50 with Calreticulin (setting [3]) was determined as 8.06 µM; in the assay on HMGB1 (setting [4]) it was 10.4 µM.
With `COc1ccc2nc(CN3Cc4ccccc4C(O)C3)[nH]c(=O)c2c1` (centres unmarked) [Ex. #123, 2-[(4-hydroxy-3,4-dihydro-1H-isoquinolin-2-yl)methyl]-6-methoxy-3H-quinazolin-4-one], the figures for the EC50 in the assay with Calreticulin (setting [1]) and with HMGB1 (setting [2]) were 3.61 µM and 13.1 µM, respectively.
Taken in the same sequence, the figures for `O=c1[nH]c(CN2CC3(CCCC3)c3ccccc32)nc2ccc(Cl)cc12` [Ex. #42, 6-chloro-2-(spiro[cyclopentane-1,3′-indoline]-1′-ylmethyl)-3H-quinazolin-4-one] were 1.76 µM and 3.55 µM.
For `COc1ccc2nc(CN3CCCc4ccccc43)[nH]c(=O)c2c1` [Ex. #15, 2-(3,4-dihydro-2H-quinolin-1-ylmethyl)-6-methoxy-3H-quinazolin-4-one], in that order: 1.06 µM and 3.34 µM.
